Experiments:
[1] = Antiproliferative activity against HEK293 cells assessed as cell growth inhibition at 10 uM incubated for 48 hrs by MTT assay relative to control; type: toxicity, cell-based; details: human
[2] = test system: MIA PaCa-2; test: Antiproliferative activity against human MIA PaCa-2 cells assessed as cell growth inhibition at 10 uM incubated for 48 hrs by MTT assay relative to control; type: functional
[3] = molecular target: CDK9/Cyclin K (Homo sapiens) (UniProt P50750+O75909); test: Inhibition of CDK9/cyclin K (unknown origin) at 10 uM by ADP-Glo assay relative to control; type: protein-complex assay
[4] = test system: HCT-116; test: Antiproliferative activity against human HCT-116 cells assessed as cell growth inhibition at 10 uM incubated for 48 hrs by MTT assay relative to control; type: functional
[5] = molecular target: Cyclin-dependent kinase 7/ cyclin H (Homo sapiens) (UniProt P51946+P50613); test: Inhibition of CDK7/cyclin H (unknown origin) at 10 uM by ADP-Glo assay relative to control; type: protein-complex assay
[6] = molecular target: CDK9/cyclin T1 (Homo sapiens, UniProt P50750); test: Inhibition of CDK9/cyclin T1 (unknown origin) by ADP-Glo assay; type: protein-complex assay
[7] = test system: HCT-116; test: Antiproliferative activity against human HCT-116 cells assessed as cell growth inhibition incubated for 48 hrs by MTT assay; type: functional
[8] = Antiproliferative activity against HEK293 cells assessed as cell growth inhibition incubated for 48 hrs by MTT assay; type: toxicity, cell-based; details: human
[9] = molecular target: Cyclin-dependent kinase 7/ cyclin H (Homo sapiens, UniProt P50613); test: Inhibition of CDK7/cyclin H (unknown origin) by ADP-Glo assay; type: protein-complex assay
[10] = test system: MIA PaCa-2; test: Antiproliferative activity against human MIA PaCa-2 cells assessed as cell growth inhibition incubated for 48 hrs by MTT assay; type: functional
[11] = molecular target: CDK9/Cyclin K (Homo sapiens, UniProt P50750); test: Inhibition of CDK9/cyclin K (unknown origin) by ADP-Glo assay; type: protein-complex assay
[12] = AUC(0 to infinity) in BALB/c mouse at 30 mg/kg, po measured for 6 hrs by LC-MS/MS analysis; type: ADME, organism-based; details: in vivo
[13] = Half life in BALB/c mouse at 30 mg/kg, po measured for 6 hrs by LC-MS/MS analysis; type: ADME, organism-based; details: in vivo
[14] = Metabolic stability in human liver microsomes assessed as compound remaining at 10 uM measured after 30 mins in presence of NADPH by HPLC analysis; type: ADME, Microsome; details: 0.5 h
[15] = Volume of distribution in BALB/c mouse at 2.5 mg/kg, iv measured for 6 hrs by LC-MS/MS analysis; type: ADME, organism-based; details: in vivo
[16] = Cmax in BALB/c mouse at 30 mg/kg, po measured for 6 hrs by LC-MS/MS analysis; type: ADME, organism-based; details: in vivo
[17] = Metabolic stability in mouse liver microsomes assessed as compound remaining at 10 uM measured after 30 mins in presence of NADPH by HPLC analysis; type: ADME, Microsome; details: 0.5 h
[18] = Volume of distribution in BALB/c mouse at 30 mg/kg, po measured for 6 hrs by LC-MS/MS analysis; type: ADME, organism-based; details: in vivo
[19] = AUC(0 to t) in BALB/c mouse at 2.5 mg/kg, iv measured for 6 hrs by LC-MS/MS analysis; type: ADME, organism-based; details: in vivo
[20] = test system: MIA PaCa-2; test: Induction of intracellular ROS generation in human MIA PaCa-2 cells incubated for 48 hrs by DCFDA dye based analysis; type: functional, cell-based
[21] = test system: MIA PaCa-2; test: Induction of mitochondrial membrane potential loss in human MIA PaCa-2 cells incubated for 48 hrs by Rhodamine-123 dye based analysis; type: functional, cell-based
[22] = test system: MIA PaCa-2; test: Induction of apoptosis in human MIA PaCa-2 cells assessed as chromatin condensation incubated for 48 hrs by DAPI staining based analysis; type: functional, cell-based
[23] = Tmax in BALB/c mouse at 30 mg/kg, po measured for 6 hrs by LC-MS/MS analysis; type: ADME, organism-based; details: in vivo
[24] = Clearance in BALB/c mouse at 2.5 mg/kg, iv measured for 6 hrs by LC-MS/MS analysis; type: ADME, organism-based; details: in vivo
[25] = AUC(0 to infinity) in BALB/c mouse at 2.5 mg/kg, iv measured for 6 hrs by LC-MS/MS analysis; type: ADME, organism-based; details: in vivo
[26] = C0 in BALB/c mouse at 2.5 mg/kg, iv measured for 6 hrs by LC-MS/MS analysis; type: ADME, organism-based; details: in vivo
[27] = Clearance in BALB/c mouse at 30 mg/kg, po measured for 6 hrs by LC-MS/MS analysis; type: ADME, organism-based; details: in vivo
[28] = AUC(0 to t) in BALB/c mouse at 30 mg/kg, po measured for 6 hrs by LC-MS/MS analysis; type: ADME, organism-based; details: in vivo
[29] = test system: MIA PaCa-2; test: Induction of apoptosis in human MIA PaCa-2 cells assessed as apoptotic body formation incubated for 48 hrs by DAPI staining based analysis; type: functional, cell-based
[30] = Half life in BALB/c mouse at 2.5 mg/kg, iv measured for 6 hrs by LC-MS/MS analysis; type: ADME, organism-based; details: in vivo

Sequence of Cyclin-dependent kinase 7/ cyclin H (P51946 whole entry): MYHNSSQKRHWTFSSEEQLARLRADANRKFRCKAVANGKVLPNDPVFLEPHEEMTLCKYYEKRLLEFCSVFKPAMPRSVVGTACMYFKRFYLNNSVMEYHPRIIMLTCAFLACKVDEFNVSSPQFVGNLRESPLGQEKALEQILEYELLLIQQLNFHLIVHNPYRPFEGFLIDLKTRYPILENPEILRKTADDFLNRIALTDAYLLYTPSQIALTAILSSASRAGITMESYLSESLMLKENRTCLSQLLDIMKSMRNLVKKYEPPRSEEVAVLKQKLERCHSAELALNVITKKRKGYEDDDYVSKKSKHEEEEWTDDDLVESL
Sequence of Cyclin-dependent kinase 7/ cyclin H (P50613 whole entry): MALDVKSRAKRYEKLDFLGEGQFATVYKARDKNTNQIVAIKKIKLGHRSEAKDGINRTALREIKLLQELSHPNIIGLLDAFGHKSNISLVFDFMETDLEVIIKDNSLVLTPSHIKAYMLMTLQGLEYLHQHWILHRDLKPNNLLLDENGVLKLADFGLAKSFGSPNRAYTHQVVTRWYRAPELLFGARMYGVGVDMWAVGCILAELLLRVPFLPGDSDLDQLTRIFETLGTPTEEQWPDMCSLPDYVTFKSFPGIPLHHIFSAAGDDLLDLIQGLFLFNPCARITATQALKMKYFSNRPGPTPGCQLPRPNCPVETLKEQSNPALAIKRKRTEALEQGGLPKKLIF
Sequence of CDK9/Cyclin K (P50750 whole entry): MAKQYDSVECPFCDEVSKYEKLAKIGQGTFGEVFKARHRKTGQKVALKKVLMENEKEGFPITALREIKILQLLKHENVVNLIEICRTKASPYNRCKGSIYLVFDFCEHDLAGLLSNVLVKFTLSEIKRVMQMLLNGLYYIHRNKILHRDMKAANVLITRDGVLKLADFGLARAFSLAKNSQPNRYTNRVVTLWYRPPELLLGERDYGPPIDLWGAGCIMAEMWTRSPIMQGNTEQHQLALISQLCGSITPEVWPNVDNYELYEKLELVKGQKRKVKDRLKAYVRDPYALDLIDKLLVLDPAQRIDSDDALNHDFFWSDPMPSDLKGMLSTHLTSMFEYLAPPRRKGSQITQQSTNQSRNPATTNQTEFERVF
Sequence of CDK9/Cyclin K (O75909 whole entry, further chain): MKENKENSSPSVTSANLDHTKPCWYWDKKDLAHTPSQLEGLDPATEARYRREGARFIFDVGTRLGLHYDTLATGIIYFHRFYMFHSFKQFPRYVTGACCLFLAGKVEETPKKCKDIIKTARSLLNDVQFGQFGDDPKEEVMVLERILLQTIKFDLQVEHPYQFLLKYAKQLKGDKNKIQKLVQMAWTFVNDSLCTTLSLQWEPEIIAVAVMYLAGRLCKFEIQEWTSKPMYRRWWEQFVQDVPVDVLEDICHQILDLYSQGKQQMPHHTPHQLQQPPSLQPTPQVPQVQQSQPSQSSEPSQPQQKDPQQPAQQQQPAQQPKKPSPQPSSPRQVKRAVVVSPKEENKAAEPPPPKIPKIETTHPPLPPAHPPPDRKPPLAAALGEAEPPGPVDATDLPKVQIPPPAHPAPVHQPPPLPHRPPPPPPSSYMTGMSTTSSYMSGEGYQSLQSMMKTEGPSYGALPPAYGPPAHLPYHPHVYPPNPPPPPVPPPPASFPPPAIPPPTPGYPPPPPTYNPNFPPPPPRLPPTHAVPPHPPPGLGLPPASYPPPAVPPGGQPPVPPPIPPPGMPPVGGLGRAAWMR
Sequence of CDK9/cyclin T1 (O60563 whole entry): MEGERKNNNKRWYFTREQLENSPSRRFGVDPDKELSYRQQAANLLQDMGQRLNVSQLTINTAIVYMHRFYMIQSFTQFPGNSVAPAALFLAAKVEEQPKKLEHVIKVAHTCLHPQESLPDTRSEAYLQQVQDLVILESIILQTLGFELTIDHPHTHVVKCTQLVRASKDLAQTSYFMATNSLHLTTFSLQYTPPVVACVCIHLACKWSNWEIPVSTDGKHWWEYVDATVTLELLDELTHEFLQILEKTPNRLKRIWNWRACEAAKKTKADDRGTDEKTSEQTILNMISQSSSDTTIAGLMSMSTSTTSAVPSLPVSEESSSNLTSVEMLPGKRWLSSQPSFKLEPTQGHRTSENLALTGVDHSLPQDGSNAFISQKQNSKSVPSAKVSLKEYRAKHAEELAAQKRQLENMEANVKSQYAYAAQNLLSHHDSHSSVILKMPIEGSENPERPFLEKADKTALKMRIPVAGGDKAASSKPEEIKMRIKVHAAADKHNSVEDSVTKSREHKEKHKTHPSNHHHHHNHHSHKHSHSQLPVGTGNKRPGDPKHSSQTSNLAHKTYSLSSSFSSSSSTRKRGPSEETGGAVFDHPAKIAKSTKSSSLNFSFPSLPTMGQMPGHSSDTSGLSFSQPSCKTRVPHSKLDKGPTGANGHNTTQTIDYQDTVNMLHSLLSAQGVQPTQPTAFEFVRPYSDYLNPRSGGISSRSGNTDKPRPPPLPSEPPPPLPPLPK
Sequence of CDK9/cyclin T1 (P50750 whole entry): as the sequence (P50750 whole entry) above

| inhibition [3] | inhibition [5] | IC50 [6] | GI50 [7] | IC50 [9] | GI50 [10] | IC50 [11] | SMILES | inhibition at 48 h, 10 µM [1] | inhibition at 10 µM [2] | inhibition at 10 µM [4] | GI50 at 48 h [8] | further results |
| --- | --- | --- | --- | --- | --- | --- | --- | --- | --- | --- | --- | --- |
| 17% | 50.3% |  |  |  |  |  | COc1cc(O)c2c(=O)cc(/C=C/c3c(F)ccc(Cl)c3F)oc2c1[C@H]1CC[N+](C)([O-])C[C@H]1OC (stereo partly drawn) | 15.5% | 39% | 38.1% |  |  |
|  | 37.4% | 0.45 µM | > 10 µM | > 10 µM | 8.03 µM |  | CCOc1cc(O)c2c(=O)cc(/C=C/c3c(F)cccc3Cl)oc2c1[C@H]1CC[N+](C)([O-])C[C@H]1O (stereo partly drawn) | 22.8% | 52.8% | 34.7% | > 100 µM |  |
| 59.6% | 47.5% |  |  |  |  |  | COc1cc(O)c2c(=O)cc(/C=C/c3cccc(Cl)c3F)oc2c1[C@H]1CC[N+](C)([O-])C[C@H]1O (stereo partly drawn) | 17.2% | 52.7% | 62.1% |  |  |
| 66.2% | 65.4% |  |  |  |  |  | C[N+]1([O-])CC[C@H](c2c(O)cc(O)c3c(=O)cc(/C=C/c4ccc(Cl)cc4Br)oc23)[C@H](O)C1 (stereo partly drawn) | 21.4% | 58.4% | 57.1% |  |  |
| 58.9% | 15.9% | 0.676 µM | > 10 µM | > 10 µM | 5.58 µM | 8.47 µM | C[N+]1([O-])CC[C@H](c2c(O)cc(O)c3c(=O)cc(/C=C/c4ccccc4F)oc23)[C@H](O)C1 (stereo partly drawn) | 18.8% | 31.8% | 18.2% | > 100 µM |  |
| 41.8% | 51.4% |  |  |  |  |  | COc1cc(O)c2c(=O)cc(/C=C/c3c(F)ccc(F)c3Cl)oc2c1[C@H]1CC[N+](C)([O-])C[C@H]1O (stereo partly drawn) | 20% | 36.4% | 57.7% |  |  |
| 37.9% | 12.8% | 7.65 µM | > 10 µM | > 10 µM | > 10 µM | > 10 µM | Cc1cc(=O)c2c(O)cc(O)c([C@H]3CC[N+](C)([O-])C[C@H]3O)c2o1 (stereo partly drawn) | 14.3% | 18.8% | 34% | > 100 µM |  |
| 83.6% | 81.6% | 0.003 µM | 9.32 µM |  | 1.94 µM | 0.32 µM | CN1CC[C@H](c2c(O)cc(O)c3c(=O)cc(/C=C/c4c(Cl)cccc4Cl)oc23)[C@H](O)C1 | 20.6% | 82.5% | 49.5% | > 100 µM |  |
| 37.3% | 19.4% | 3.71 µM | > 10 µM | > 10 µM | > 10 µM | > 10 µM | C[N+]1([O-])CC[C@H](c2c(O)cc(O)c3c(=O)cc(/C=C/c4cccc(Cl)c4)oc23)[C@H](O)C1 (stereo partly drawn) | 9.2% | 36.3% | 27.4% | > 100 µM |  |
| 61.7% | 62.7% | 0.166 µM | 5.1 µM | 1.46 µM | 6.07 µM | 2.81 µM | C[N+]1([O-])CC[C@H](c2c(O)cc(O)c3c(=O)cc(/C=C/c4ccccc4Cl)oc23)[C@H](O)C1 (stereo partly drawn) | 29.7% | 56.3% | 67% | 90.3 µM | AUC(0-inf) [12]: 525 ng·h/mL; half-life [13]: 102 min; Stability [14]: Stable; Vd [15]: 3 L/kg; Cmax [16]: 731 ng/mL; Stability [17]: Stable; Vd [18]: 32.4 L/kg; AUC(0-t) at 6 h [19]: 341 ng·h/mL; Activity [20]: Dose-Dependent Effect; Activity [21]: Dose-Dependent Effect; Activity [22]: Dose-Dependent Effect; Tmax [23]: 4.98 min; clearance [24]: 120 mL/min/kg; AUC(0-inf) [25]: 346 ng·h/mL; C0 at 6 h [26]: 5720 ng/mL; CL/F [27]: 953 mL/min/kg; AUC(0-t) at 6 h [28]: 510 ng·h/mL; Activity [29]: Dose-Dependent Effect; half-life [30]: 17.4 min |
| 64.8% | 89.6% |  |  |  |  |  | C[N+]1([O-])CC[C@H](c2c(O)cc(O)c3c(=O)cc(/C=C/c4ccccc4I)oc23)[C@H](O)C1 (stereo partly drawn) | 13.4% | 38.1% | 38.3% |  |  |
| 44.2% | 41.7% | 1.99 µM | > 10 µM | > 10 µM | > 10 µM | > 10 µM | C[N+]1([O-])CC[C@H](c2c(O)cc(O)c3c(=O)cc(/C=C/c4ccccc4)oc23)[C@H](O)C1 (stereo partly drawn) | 8.2% | 21.5% | 20.5% | > 100 µM |  |
|  | 48.5% | 1.43 µM | 4.56 µM | 5.14 µM | 7.05 µM |  | C[N+]1([O-])CC[C@H](c2c(O)cc(O)c3c(=O)cc(/C=C/c4c(F)cccc4Cl)oc23)[C@H](O)C1 (stereo partly drawn) | 19.3% | 56.1% | 61.7% | > 100 µM |  |
| 43.2% | 49.6% |  |  |  |  |  | C[N+]1([O-])CC[C@H](c2c(O)cc(O)c3c(=O)cc(/C=C/c4ccc(Cl)cc4Cl)oc23)[C@H](O)C1 (stereo partly drawn) | 18.2% | 41.2% | 54% |  |  |
| 28.4% | 56.7% |  |  |  |  |  | COc1cc(O)c2c(=O)cc(/C=C/c3ccc(F)c(Cl)c3)oc2c1[C@H]1CC[N+](C)([O-])C[C@H]1O (stereo partly drawn) | 6.9% | 27.8% | 33.7% |  |  |
|  |  |  |  |  |  |  | CC(=O)O[C@H]1C(=O)[C@@]2(C)[C@H]([C@H](OC(=O)c3ccccc3)[C@]3(O)C[C@H](OC(=O)[C@H](O)[C@@H](NC(=O)c4ccccc4)c4ccccc4)C(C)=C1C3(C)C)[C@]1(OC(C)=O)CO[C@@H]1C[C@@H]2O |  |  |  |  | Activity [21]: Dose-Dependent Effect; Activity [22]: Dose-Dependent Effect; Activity [29]: Dose-Dependent Effect |
| 60.2% | 49.4% | 0.231 µM | 9.32 µM | 1.62 µM | 5.35 µM | 2.41 µM | C[N+]1([O-])CC[C@H](c2c(O)cc(O)c3c(=O)cc(/C=C/c4ccccc4Br)oc23)[C@H](O)C1 (stereo partly drawn) | 17.2% | 70.3% | 36.3% | 95.2 µM |  |
| 35.8% | 18.2% | 3.85 µM | > 10 µM | > 10 µM | > 10 µM | > 10 µM | C[N+]1([O-])CC[C@H](c2c(O)cc(O)c3c(=O)cc(/C=C/c4ccc(Cl)cc4)oc23)[C@H](O)C1 (stereo partly drawn) | 9.1% | 44.2% | 39.3% | 46.3 µM |  |
| 28% | 25.6% |  |  |  |  |  | C[N+]1([O-])CC[C@H](c2c(O)cc(O)c3c(=O)cc(/C=C/c4cc(Cl)cc(Cl)c4)oc23)[C@H](O)C1 (stereo partly drawn) | 14.8% | 11.3% | 5.7% |  |  |
| 65.8% | 47.5% | 0.399 µM | 5.44 µM | 6.44 µM | 9.7 µM | 3.44 µM | C[N+]1([O-])CC[C@H](c2c(O)cc(O)c3c(=O)cc(/C=C/c4c(Cl)cccc4Cl)oc23)[C@H](O)C1 (stereo partly drawn) | 24.1% | 53.6% | 72.3% | > 100 µM |  |

Reference: ChEMBL document CHEMBL5620385, “Orally bioavailable styryl derivative of rohitukine-N-oxide inhibits CDK9/T1 and the growth of pancreatic cancer cells” (Eur J Med Chem, 2023)
